From paper PMC6108835, “Target-Based Discovery of an Inhibitor of the Regulatory Phosphatase PPP1R15B” (Cell, 2018)

Tests used:
R15A = R15A (Homo sapiens, UniProt O75807); experiment: R15A levels on immunoblots of HeLa cell lysates; assay type: cell-based; parameters: endogenous in cells; host or cells: HeLa; settings: HeLa cells, Raphin1 10 μM
Description: (§1) HeLa or MEF cells (90,000 cells/mL) were plated in 12-well plates (1 mL/well). The following day cells were treated as indicated; the medium was removed, fresh medium containing compound added and incubated at 37°C for the times indicated. The time course was performed in reverse order to facilitate collecting all samples at the same time. At the end of treatment cells were washed two times with ice-cold PBS and lysed in 150 μL Laemmli Buffer. Lysates were transferred to 1.5 mL eppendorf tubes, boiled at 95°C for 5 min, sonicated and resolved on Bolt SDS-PAGE 4%–12% Bis-Tris gels (ThermoFisher Scientific). Proteins were transferred to the nitrocellulose membrane using the iBlot 2 system (ThermoFisher Scientific). Membrane was blocked in 5% skimmed milk for 30 min and then probed with primary antibodies followed by incubation with the appropriate horseradish peroxidase-conjugated secondary antibodies (Promega). Proteins were visualized using ECL Prime (GE Healthcare) and imaged in the Chemi-Smart 5000 (Vilber-Lourmat, France) or ChemiDoc Touch (BioRad). Bands were quantified using ImageJ (NIH, USA). […]

[1] = test system: eIF2α phosphorylation (HeLa cells); experiment: Protein analyses on immunoblots, HeLa cells; assay type: cell-based, human; settings: for eIF2α phosphorylation: 0-10 h
Description: HeLa or MEF cells (90,000 cells/mL) were plated in 12-well plates (1 mL/well). The following day cells were treated as indicated; the medium was removed, fresh medium containing compound added and incubated at 37°C for the times indicated. The time course was performed in reverse order to facilitate collecting all samples at the same time. At the end of treatment cells were washed two times with ice-cold PBS and lysed in 150 μL Laemmli Buffer. Lysates were transferred to 1.5 mL eppendorf tubes, boiled at 95°C for 5 min, sonicated and resolved on Bolt SDS-PAGE 4%–12% Bis-Tris gels (ThermoFisher Scientific). Proteins were transferred to the nitrocellulose membrane using the iBlot 2 system (ThermoFisher Scientific). Membrane was blocked in 5% skimmed milk for 30 min and then probed with primary antibodies followed by incubation with the appropriate horseradish peroxidase-conjugated secondary antibodies (Promega). Proteins were visualized using ECL Prime (GE Healthcare) and imaged in the Chemi-Smart 5000 (Vilber-Lourmat, France) or ChemiDoc Touch (BioRad). Bands were quantified using ImageJ (NIH, USA). The following primary antibodies were used: e-IF2α-P (ThermoFisher Scientific (#44-728G), 1:1,000), e-IF2α (Abcam (#ab5369), 1:1,000), tubulin (Sigma-Aldrich (#T5168), 1:4,000), BiP (BD Biosciences PharMingen (#610978), 1:1,000), ATF4 (Santa Cruz Biotechnology (#sc-200), 1:500), Ppp1r15a (Proteintech (#10449-1-AP), 1:1,000), Ppp1r15b (Proteintech (#14634-1-AP), 1:1,000) and CHOP (ABR Affinity BioReagents (#MA1-250), 1:1,000).

R15a −/− cells = experiment: eIF2α phosphorylation and translation rates in R15a −/− MEF cells; assay type: cell-based, mouse; settings: R15a −/− cells (genetic inactivation of R15A), 10 μM
Description: as §1
HeLa or MEF cells (90,000 cells/mL) were plated in 12-well plates (1 mL/well). […] The gels were then exposed to a Storage Phosphor Screen (GE Healthcare) and analyzed by phosphorimaging using a Typhoon Imager Scanner (GE Healthcare).

brains of wild-type mice = experiment: Monitoring translation rates in vivo, brains of wild-type mice; parameters: species or system mouse; settings: 40 mg/kg
Description: 3 months old treatment- and test-naive C57BL/6J males were treated as indicated. 30 min before the end of treatment mice were injected intraperitoneally with 0.75 mCi/kg radioactive label – 75% ^35S-methionine + 25% ^35S-cystine (Hartmann Analytic). At the end of treatment mice were culled by cervical dislocation, brains were extracted, fresh-frozen in liquid nitrogen and kept at −80°C until use. Tissue was homogenized and lysed in Laemmli Buffer (1 mL for 0.5 mg tissue). Lysates were boiled at 95°C for 5 min, sonicated and resolved on Bolt SDS-PAGE 4%–12% Bis-Tris gels (ThermoFisher Scientific). Gels were then stained with InstantBlue (Expedeon) and after the gels had been imaged they were transferred to a 20% ethanol, 7% acetic acid, 4% glycerol solution for 10 min. This was to prevent the gels from cracking while drying. The gels were transferred to filter paper and dried using a gel dryer. The gels were then exposed to a Storage Phosphor Screen (GE Healthcare) and analyzed by phosphorimaging using a Typhoon Imager Scanner (GE Healthcare).

R15A, sequence (O75807 whole entry, stated change not applied): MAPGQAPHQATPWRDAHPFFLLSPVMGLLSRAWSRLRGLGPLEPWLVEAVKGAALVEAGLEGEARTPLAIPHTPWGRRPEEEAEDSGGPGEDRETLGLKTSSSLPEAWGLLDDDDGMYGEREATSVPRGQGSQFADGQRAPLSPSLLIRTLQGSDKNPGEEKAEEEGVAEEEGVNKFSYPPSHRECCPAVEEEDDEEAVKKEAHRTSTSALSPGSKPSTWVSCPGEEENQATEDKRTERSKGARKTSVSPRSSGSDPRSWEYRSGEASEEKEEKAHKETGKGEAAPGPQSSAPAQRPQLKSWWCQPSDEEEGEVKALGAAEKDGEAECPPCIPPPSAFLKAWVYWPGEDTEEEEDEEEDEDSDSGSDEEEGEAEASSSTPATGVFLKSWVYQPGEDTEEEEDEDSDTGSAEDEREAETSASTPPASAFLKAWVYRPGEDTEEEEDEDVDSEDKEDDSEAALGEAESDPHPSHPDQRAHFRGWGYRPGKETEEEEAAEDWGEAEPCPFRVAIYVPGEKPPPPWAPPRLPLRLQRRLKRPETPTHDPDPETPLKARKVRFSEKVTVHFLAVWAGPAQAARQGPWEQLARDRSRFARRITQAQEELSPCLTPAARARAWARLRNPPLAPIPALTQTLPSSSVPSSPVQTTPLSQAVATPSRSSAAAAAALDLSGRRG

In the case of `[H]/N=C(\N)NN=Cc1cccc(Cl)c1Cl` [Raphin1, (E)-2-(2,3-dichlorobenzylidene)hydrazine-1-carboximidamide], the “R15A levels (decrease)” value (R15A) is reported as “not observed”, the “ATF4 and R15A induction” value ([1]; 10 μM) is reported as “induced” and the “Stress marker BiP” value ([1]; 10 μM) is reported as “did not increase”. The eIF2α phosphorylation ([1]; 20 μM) was “persistent phosphorylation”, the eIF2α phosphorylation ([1]; unstressed, 10 μM) was “rapidly and transiently increased” and the “Raphin1-induced eIF2α phosphorylation and translation attenuation” value (R15a −/− cells) was “persisted”. The “Time of translation recovery after administration” value (brains of wild-type mice; wild-type brains) was ~6 h and the “Protein synthesis in the brains (in words)” value (brains of wild-type mice; wild-type mice) was “transiently reduced”.
